Data: patent US20030203963A1, “Antimicrobial agent” (priority 2001, published 2003)

Experiments:
[1] = tested on: L. monocytogenes 272; assay: Test in cooked minced beef slurry; assay type: cell-based, Listeria monocytogenes
Experimental: 1 kg of minced beef, purchased from the local butcher, was mixed with 1 litre of BHI. 200 g portion of this meat slurry was autoclaved. When the meat had cooled, the pH was recorded (pH 6.24), and each pot was inoculated with 2.0 ml of 10^5 spores or cells and the meat re-mixed thoroughly. Each inoculated 200 g pot was distributed as 3×50 g portions. To each pot 1 ml of SDW, 5% or 10% APP (Batch No. APP20010215) was added, and the meat was again mixed thoroughly. An initial viable count was performed, the meat was incubated at 8° C. and sampled twice weekly. The pH of the cooked minced beef slurry was 6.24.

[2] = tested on: L monocytogenes S23; assay: Chicken soup trial at 8° C.; assay type: cell-based, Listeria monocytogenes; conditions: chicken soup at 8° C., TCSM010521, APP215
Excerpt: A local supermarket brand of cream of chicken soup was used as a model food system. 600 g packs were purchased from the local supermarket. This was a ‘fresh home-made type’ of soup that was stored in the chill cabinet, with a short shelf life. It was chosen because it is a rich, nutritious food system containing a range of food components including meat, dairy and vegetable.
Ingredients were labelled as: chicken stock (water, duck fat, chicken, salt, flavourings, yeast extracts, pork gelatine, glucose syrup, vegetable concentrate, milk protein, sugar, malto-dextrin, vegetable oil, citric acid, lactose, chicken fat), ilk, chicken (9%), cream (8%), onion, potato, vegetable oil, modified maize starch, wheat flour, lemon juice, salt, white pepper. pH 5.912. Protein: 3.3%; carbohydrate: 4.7%; fat: 7.2%; fibre: 0.2%; sodium: 0.1%
For the test the soup was mixed 2:1 in water (to facilitate sampling and mixing) and sterilised by autoclaving at 121° C. for 15 minutes. For each experiment the pH of the soup was recorded; this was between pH 5.79-5.88.
For TCS010521/8 (incubated at 8° C.), samples were prepared in 27.8 g quantities. 1.5 g of an APP stock solution was added, and the tests inoculated with 0.3 ml of a suitably diluted cell or spore suspension to give a final inoculum of ca. 10^3 cfu/g. APP was tested at 0, 500 and 1000 ppm, and batch number APP20010213 (at 169 mg/ml) was used. The tests were sampled by viable count and then incubated at 8° C. and tested on a twice-weekly basis.

[3] = tested on: B. cereus; assay: Test in milk; assay type: cell-based, Bacillus cereus; conditions: TMGB010605; for Control for: milk at 20° C.
Experimental: 8.9 ml samples of UHT milk containing 0.5% glucose and the indicator bromocresol purple (0.01%) were prepared and sterilised by autoclaving. The pH before APP addition was pH 6.65. Appropriate stock solutions of APP batch number APP20010215 (at 138 mg/ml) were prepared and filter sterilised. 1 ml of each was added to the milk to prepare tests containing 0, 1000 and 2000 ppm APP. Tests were then inoculated with 100 μl of diluted overnight broth cultures or spore suspensions to give a final inoculum level of ca. 10^3 cfu/ml. These and uninoculated tests were incubated at 20 and 8° C. and examined daily for visible changes compared to uninoculated control.

[4] = tested on: Br. thermosphacta; assay: Inoculated test in raw meat; assay type: cell-based, Brochothrix thermosphacta; conditions: Raw inoculated meat at 8° C. pH 5.3
Experimental: Fresh beef steak was purchased from the local butcher, and minced on clean machinery. The raw meat (ca. pH 6.2) was divided into 8×90 samples and inoculated-with 10^3 cfu/ml of test organisms. The meat was mixed thoroughly using a stomacher. 10 g of SDW or 2% APP (Batch number APP20010215) was added, and the meat was again thoroughly mixed. An initial viable count was taken, the meat was incubated at 8° C., and sampled on the following days using non-selective agar (MPCA) and selective agar: XLD for Salmonella; Oxford selective agar (Listeria monocytogenes); and STAA agar (Brochothrix thermosphacta). The pH of the raw meat was pH 5.3.

[5] = tested on: S. carisbergensis CRA6413; assay: Bioscreen growth inhibition test; assay type: cell-based, Saccharomyces carlsbergensis; conditions: APP 213, BS010420, 72 h/25° C.
Experimental: (§1) For broth cultures and Bioscreen testing most bacteria were grown in Brain Heart Infusion (BHI, Oxoid, pH 7.4). Lactobacillus sake A10 was grown in de Man, Rogosa, Sharpe medium ([…], Oxoid). Yeasts were grown in Sabouraud Liquid medium (SLM, Oxoid). Most bacteria were cultured at 30° C. Lactic acid bacteria were grown on solid medium in enriched CO2 atmosphere. Clostridium species were grown in Reinforced Clostridial Medium (RCM) at 37° C. anaerobically. Brochothrix thermosphacta fungi and yeasts were grown at 25° C. Fungi were cultured on Malt Extract Agar (MEA, Oxoid).
(§2) An automated Microbiology Reader Bioscreen C was used to measure growth curves of the strains in the presence and absence of APP. The Bioscreen C measures the development of turbidity (i.e. growth) kinetically by vertical photometry in 200 wells of a honeycomb microtitre plate, simultaneously. The system consists of a Bioscreen C analyser, which is an incubator and measurement unit, integrated with a PC, software (BioLink v 5.30), printer and a ‘Honeycomb 2’ cuvette multiwell plate. Growth curve data can be analysed within the BioLink software or exported to programs such as Excel.
Broth culture media were dispensed in 270 μl volumes into the wells as directed. […] (depending on the micro-organism under investigation) with readings taken every 20 minutes after the trays were shaken. […]

[6] = tested on: Ps. fluorescens 10460; assay: Bioscreen growth inhibition test; assay type: cell-based, Pseudomonas fluorescens; conditions: BS010510, 24 h/30, APP20010213
Experimental: as §1, §2
(§3) Broth culture media were dispensed in 270 μl volumes into the wells as directed. Serial dilutions of a filter-sterilised APP stock solution were then dispensed into the same wells, as appropriate. The wells were inoculated with 30 μl of an appropriately diluted overnight broth culture or spore suspension, to give a final inoculum level of […]. The tests were incubated in the Bioscreen C for either 24 h at 30° C., or 72 h at 25° C. (depending on the micro-organism under investigation) with readings taken every 20 minutes after the trays were shaken. After the incubation period was complete the data were exported to Excel for analysis.

[7] = tested on: Ps. fluorescens 1331; assay: Bioscreen growth inhibition test; assay type: cell-based, Pseudomonas fluorescens; conditions: BS010510, 24 h/30, APP20010213
Experimental: as §1, §2, §3

[8] = tested on: Ps. fluorescens 327; assay: Bioscreen growth inhibition test; assay type: cell-based, Pseudomonas fluorescens; conditions: BS010510, 24 h/30, APP20010213
Experimental: as §1, §2, §3

[9] = tested on: Ps. fluorescens 3756; assay: Bioscreen growth inhibition test; assay type: cell-based, Pseudomonas fluorescens; conditions: BS010411, 24 h/30° C.
Experimental: as §1, §2, §3

Question: Which Effect on growth ([1]; 2000 ppm, minced beef slurry at 8° C., pH 6.24, TCM010619) does the source give for O=C1CC(CO)OC=C1O (stereo not shown) [APP, Ascopyrone P] here?
Answer: Its Effect on growth is “No significant inhibition by 2000 ppm”.

Question: And the “No inhibition (effect on growth of target organism by 2000 ppm APP)” value ([1]; Cooked minced beef slurry at 8° C. pH 6.24, organism printed in brackets)?
Answer: Its value is “(L. monocytogenes)”.

Question: What about the “Effect on growth rate” value ([2]; 500 ppm) of the same compound?
Answer: The value was “Slight reduction of growth rate with 500 and 1000 ppm”.

Question: What about the Effect on growth ([2]; 1000 ppm) of the same compound?
Answer: The Effect on growth was “No total inhibition by 1000 ppm”.

Question: What about the “Effect on growth rate” value ([2]; 1000 ppm) of the same compound?
Answer: The value was “Slight reduction of growth rate with 500 and 1000 ppm”.

Question: What about the “Control for” value ([3]; 1000 ppm) of the same compound?
Answer: The value was 4 days.

Question: What about the Control of growth ([3]; 2000 ppm, milk at 8° C.) of the same compound?
Answer: Its Control of growth is “No control observed”.

Question: And the “Control for” value ([3]; 2000 ppm)?
Answer: Its value is 6 days.

Question: And the “No inhibition (effect on growth of target organism by 2000 ppm APP)” value [4]?
Answer: Its value is “Br. thermosphacta”.

Question: What about the “APP level causing significant inhibition” value [5] of the same compound?
Answer: The value was “Enhanced growth”.

Question: And the “APP level causing total inhibition” value [5]?
Answer: The value was over 4000.

Question: What about the “APP level causing significant inhibition” value [6] of the same compound?
Answer: Its value is 1000 ppm.

Question: And the “APP level causing total inhibition” value [6]?
Answer: The value was 2000 ppm.

Question: What about the “APP level causing total inhibition” value [7] of the same compound?
Answer: Its value is 1000 ppm.

Question: And the “APP level causing total inhibition” value [8]?
Answer: Its value is 1000 ppm.

Question: What about the “APP level causing significant inhibition” value ([9]; APP 20010213) of the same compound?
Answer: Its value is 1000 ppm.

Question: What about the “APP level causing total inhibition” value ([9]; APP 20010213) of the same compound?
Answer: The value was 2000 ppm.

Question: What about the “APP level causing significant inhibition” value ([9]; APP 20010215) of the same compound?
Answer: The value was 1000 ppm.

Question: And the “APP level causing total inhibition” value ([9]; APP 20010215)?
Answer: The value was 2000 ppm.
